Data: patent US20140303109A1 (priority 2010, published 2014)

What was measured:
miR-200b and miR-200c = test: Real-time RT-PCR of miR-200b and miR-200c in PC cell lines; type: cell-based, human; details: 72 h; BxPC-3, MIAPaCa-E, MIAPaCaM
Protocol: The expression of miRNAs (miRNA-200a, miR-200b, and miR-21) in all three pancreatic cancer cell lines, was measured with a TaqMan MicroRNA Assay kit (Applied Biosystems, Carlsbad, Calif.) following the manufacturer's protocol. […] Real-time RT-PCR reactions were then carried out in a total volume of 25 μl reaction mixture, as described by Li, et al., id., using Smart Cycler II (Cepheid, Sunnyvale, Calif.). The data were analyzed using Ct method and were normalized by RNU6B expression in each sample.

[1] = Pancreas tissue pharmacokinetics after single intragastric dose; type: in vivo, mice
Protocol: (§1) The mice were randomly divided into two groups of 18 mice apiece. […] Blood and tissue samples were harvested before initiation of treatment (0 hr) and at 1, 2, 4, 6, 8, 12, 16, and 24 hrs following the intragastric administration. At each time point, two mice were euthanized and ˜200 μL blood was collected by cardiac puncture, and tissues (liver, lung, kidney, heart, pancreas, and colon) were harvested, washed free of blood with PBS, blotted dry, weighed, and stored at −80° C. until analysis. The collected blood samples were allowed to clot, centrifuged, and then the serum was separated and stored at −80° C. until analysis.
(§2) The tissue samples were homogenized in 5 volumes of ice-cold normal saline. Aliquots of serum or tissue homogenate were spiked with ethyl acetate (containing 50 ng/ml zilueton as an internal standard) as follows: 100 μL serum/500 μL ethyl acetate and 500 μL tissue homogenate/1 ml ethyl acetate. The mixtures were vortex-mixed and centrifuged at 14,000 rpm for 5 minutes. The top layer was separated and dried under a stream of nitrogen in a water bath at about 50° C. The residue was reconstituted in 100 μL of methanol/water containing 0.45% formic acid (70:30 v/v) and then centrifuged again.
(§3) The supernatant (100 μL) was injected into the HPLC equipment, and separated on a Waters Xterra MS column (2.1×50 mm, […] i.d.) With a mobile phase consisting of methanol/water containing 0.45% formic acid (70:30 v/v) at a flow rate of 0.2 ml/min. The column effluent was monitored using a Waters Quattro Micro™ triple quadrapole mass-spectrometric detector equipped with an electrospray ionization source. (Waters Corporation, Milford, Mass.). […] The internal standard zilueton was monitored in the positive mode at the transition of m/z, 237.1→160.8. […] The within-day and between-day precision and accuracies of the assay was <15%.
(§4) Serum pharmacokinetic parameters were estimated using non-compartmental analysis with WinNonlin software version 4.2 (Pharsight Corporation, Cary, N.C.). The maximum serum concentration (Cmax) and the time of occurrence for maximum concentration (Tmax) were obtained by visual inspection of the serum concentration-time curve after drug administration. The total area under the serum concentration-time curve from time zero to the last measurable time point ([…]) was calculated using the linear and logarithmic trapezoidal method for ascending and descending serum concentrations, respectively.

[2] = Serum pharmacokinetics after single intragastric dose; type: in vivo, mice
Protocol: as §1, §2, §3, §4

[3] = test system: AsPC-1, AsPC1-GTR, MIAPaCa-2, and MIAPaCa-2-GTR cell lines; test: BD BioCoat tumor invasion assay; type: cell-based, human; details: 4 μmol/L
Protocol: The invasive activity of the drug resistant cell lines was tested by using a BD BioCoat Tumor Invasion Assay System (BD Biosciences, Bedford, Mass.) according to the manufacturer's protocol. […] The fluorescence was read using a TECAN Microplate Reader at 530/590 nm and photographed.

[4] = test system: AsPC-1 and MIAPaCa-2 cells; test: Clonogenic assay, parental lines; type: cell-based, human; details: 4 μmol/L CUR or CDF, 20 nmol/L GEM
[5] = test system: NF-κB DNA binding activity; test: EMSA for NF-κB DNA binding activity, three PC lines; type: cell-based, human; details: 72 h; CDF/CUR 1 or 4 μMol/L, GEM 10 nMol/L
Protocol: The DNA binding activity of the nuclear transcription factor, NF-κB was assessed in the BxPC-3, MIAPaCa-E, and MIAPaCa-M cell lines by EMSA. […] The cells were lysed in 400 μl of lysis buffer and the reaction was set up as described earlier in Ali, et al., id. The gel was scanned using an Odyssey Infrared Imaging System, (LI-COR, Inc., Lincoln, Nebr.). Equal protein loading was ensured by immunoblotting 10 μg of nuclear protein and probing with anti-retinoblastoma antibody.

[6] = Tissue distribution after single intragastric dose; type: in vivo, mice; details: for concentration in the colon: 250 mg/kg oral; for preferential tissue distribution: 250 mg/kg single dose, liver, lung, kidney, heart, pancreas, colon
Protocol: as §1, §2, §3

[7] = test system: miR-21, miR-200b, miR-200c; test: RT-PCR of miR-21, miR-200b, miR-200c in MIAPaCa-2 tumors; type: in vivo, mice
Protocol: Therefore, the expression of miRNAs (miRNA-200b, miR-200c, and miR-21) in MIAPaCa-2 tumors, was assessed with a TaqMan MicroRNA Assay kit (Applied Biosystems, Carlsbad, Calif.) following the manufacturer's protocol. 5 ng of total RNA was reverse transcribed and real-time PCR reactions were carried as previously described.

[8] = test system: COX-2, E-cadherin, PTEN, pAkt, tropomyosin expression; test: Western blot of COX-2, E-cadherin, PTEN, pAkt, tropomyosin; type: cell-based, human; details: BxPC-3 cell line only, 72 h
[9] = test system: BxPC-3 pancreatic cancer cells; test: Cell Apoptosis ELISA (histone/DNA fragments), BxPC-3; type: cell-based, human; details: 72 h, various concentrations
Description: A Cell Apoptosis ELISA Detection Kit (Roche, Palo Alto, Calif.) was used to determine whether the inhibition of cell growth could be due, at least partially, to the induction of apoptosis, in the BxPC-3 pancreatic cancer cells. […] After the treatment, the cytoplasmic histone/DNA fragments were extracted and bound to immobilized anti-histone antibody. Subsequently, peroxidase-conjugated anti-DNA antibody was used for the detection of immobilized histone/DNA fragments.

PGE2 = PGE2 immunoassay of conditioned medium, BxPC-3 and MIA PaCa-2; type: cell-based, human; details: 24 h
Protocol: The conditioned medium was collected and analyzed for PGE2 concentration, according to the manufacture's protocol, using a PGE2 high sensitivity immunoassay kit purchased from R & D Systems, Minneapolis, Minn. The optical density was measured at 450 nm and the concentration of PGE2 was calculated from the standard curve.

[10] = female, ICR-SCID, mouse, po, pancreas, 250 mg/kg single intragastric
[11] = pancreas, 250 mg/kg single intragastric
[12] = female, ICR-SCID, mouse, po, serum, 250 mg/kg single intragastric
[13] = serum, 250 mg/kg single intragastric
[14] = serum, as printed in text 'at 1 h'

Row | SMILES | expression of miR-200b and miR-200c (miR-200b and miR-200c) | AUClast [1, 11] | Clast [1, 11] | Tlast [1, 11] | Clast [2, 13] | AUClast [2, 14] | inhibition of invasion [3] | clonogenicity [4] | NF-κβ DNA binding activity [5] | concentration in the colon [6] | preferential tissue distribution [6] | expression of miR-200b and miR-200c in tumors [7] | E-cadherin expression [8] | induction of apoptotic cell death [9] | PGE2 level in conditioned medium (PGE2; MIAPaCa-2 cells, 4 μM) | other results
1 | COc1cc(/C=C/C(=O)C(=Cc2ccc(F)c(F)c2)C(=O)/C=C/c2ccc(O)c(OC)c2)ccc1O [CDF, (1E,6E)-1,7-bis(4-hydroxy-3-methoxyphenyl)hepta-1,6-diene{4(3,4 difluorobenzaldehyde)}-3,5-dione] | much more pronounced | 36.56 µg·h/g | 0.04 µg/g | 12.0 h | 0.04 µg/mL | 1.22 µg·h/mL | significant inhibition of invasion | significant reduction in clonogenicity | significant inhibition in the DNA binding activity of NF-κβ in all three cell lines | detectable at high concentrations in the colon | accumulated preferentially in the pancreas | increased expression of both miR-200b, and miR-200c | significantly enhanced | superior to CUR | significant decrease in PGE2 levels | AUClast in pancreas tissue relative to CUR ([1]; 250 mg/kg): 10.6 times; Cmax in pancreas tissue relative to CUR ([1]; 250 mg/kg): 4.3 times; Kp at 8 h ([1]; female, ICR-SCID, mouse, pancreas / serum, oral, 250 mg/kg, at 8 h, read-out: Cmax in pancreas relative to serum): 44.5; Cmax [1, 10]: 9350 ng/g; Tmax [1, 10]: 8 h; AUC(0-t) [2, 12]: 1220 ng·h/mL; Cmax [2, 12]: 210 ng/mL; Tmax [2, 12]: 8 h; increase in systemic drug level over Curcumin ([2]; serum AUClast, oral 250 mg/kg): 2.7 fold; Tlast [2, 13]: 16.0 h; expression of MiR-21 in tumors [7]: significant reduction in the expression of MiR-21; PGE2 level in conditioned medium (PGE2; BxPC-3 cells, 1 μM): significant decrease in PGE2 level
2 | COc1cc(/C=C/C(=O)CC(=O)/C=C/c2ccc(O)c(OC)c2)ccc1O [CUR, (1E,6E)-1,7-bis(4-hydroxy-3-methoxyphenyl)hepta-1,6-diene-3,5-dione, reference compound] | increased expression of miR-200b and miR-200c | 3.46 µg·h/g | 0.20 µg/g | 16.0 h | 0.03 µg/mL | 0.44 µg/mL | minimal inhibition on invasion | significant reduction in clonogenicity | much lower effects on NF-κβ DNA binding activity than the CDF-treated cells | detectable at high concentrations in the colon | present mainly in heart and lung tissue | minimal | significantly enhanced | induce apoptosis | significant decrease in PGE2 levels | AUClast [2, 13]: 0.44 µg·h/mL; Tlast ([2]; serum, 250 mg/kg single intragastric, 250 mg/kg): 8 h; Tlast ([2]; serum, 250 mg/kg single intragastric, listed as Curcumin, 250 mg/kg): 8.0 h
